These are literature values, as cited in patent US20240366580A1, “NOVEL PHARMACEUTICAL COMPOSITIONS COMPRISING DABIGATRAN ETEXILATE OR SALT THEREOF” (Zim Laboratories Limited, priority 2021, published 2024).

The conditions of data set [1]: oral administration.
For data set [2] the following is noted: high permeability, low solubility.

SMILES strings stand for the structures. Where a name gives a salt, the structure may show the parent alone.

On to `CCCCCCOC(=O)NC(=N)c1ccc(NCc2nc3cc(C(=O)N(CCC(=O)OCC)c4ccccn4)ccc3n2C)cc1` [Dabigatran etexilate mesylate, β-Alanine, N-[[2-[[[4-[[[(hexyloxy)carbonyl]amino]iminomethyl]phenyl]amino]methyl]-1-methyl-1H-benzimidazol-5-yl]carbonyl]-N-2-pyridinyl-,ethyl ester, methanesulfonate], for which, for the setting “ethanol”, the solubility in ethanol result was “slightly soluble”. Besides, the solubility in isopropanol result (isopropanol) was “sparingly soluble”. Further, the solubility in methanol result (methanol) is on record as “freely soluble”. Further, the absolute bioavailability in data set [1] is recorded as 3-7%. Further, the BCS class result in data set [2] is recorded as “Class II”.
